No end group written: not given here.
Legend:
Format in all cases: cell-based
T98G cells = experiment: Combination with paclitaxel, cell number, T98G; conditions: 1 nM or 5 nM paclitaxel and 3, 10 or 20 μM peptide, 6 days
Description: (§1) Replicate cultures of T98G, MDA-MB 231, and MCF7 cells were treated with 1 nM or 5 nM paclitaxel and 3 μM, 10 μM, or 20 μM CP-dn-CEBPB and CP-dn-CEBPD peptides, maintained for 6 days, and then assessed for cell number. The bar graphs of FIGS. 26A (T98G, CP-dn-CEBPB), 26C (T98G, CP-dn-CEBPBD, 26E (MDA-MB-231, CP-dn-CEBPBD), 26G (MDA-MB-231, CP-dn-CEBPD), 26I (MCF7, CP-dn-CEBPBB), and 26K (MCF7, CP-dn-CEBPBD) show relative cell numbers for each condition as compared to untreated controls. The line graphs of FIGS. 26B (T98G, CP-dn-CEBPB), 26D (T98G, CP-dn-CEBPBD), 26F (MDA-MB-231, CP-dn-CEBPB), 26H (MDA-MB-231, CP-dn-CEBPD), 26J (MCF7, CP-dn-CEBPB), and 26L (MCF7 CP-dn-CEBPBD) show the response as normalized in each case so that 100 represents the relative number of surviving cells that received the indicated level of paclitaxel, but no peptide treatment. Calculated combination indices (CI) were as follows: MCF7: CI=0.41±0.04 for CP-dn-CEBPB; 0.44±0.04 for CP-dn-CEBPD; MDA-MB-231: 0.74±0.03 for CP-dn-CEBPB; 0.74±0.05 for CP-dn-CEBPD; T98G: CI=0.84±0.06 for CP-dn-CEBPB and 0.75±0.07 for CP-dn-CEBPD.

[1] = system: HCT116 colon cancer cells; experiment: Cell number after peptide treatment, HCT116; conditions: 6 days, 0 μM to 50 μM; stock without BSA
Description: (§2) Replicate cultures were exposed to the peptides the for 6 days at the indicated concentrations. Stock solutions of the peptides were prepared in buffer without added bovine serum albumin (BSA).
(§3) Replicate cultures of HCT116, MDA-MB 231, MCF7, and T98G cells were exposed to a 50/50 by concentration mixture of CP-DN-CEBPB and CP-DN-CEBPD for 6 days at doses of 0 μM to 50 μM. Stock solutions of the peptides were prepared in buffer without added bovine serum albumin (BSA).
(§4) Replicate cultures of T98G, HCT116, MDA-MB 231, and MCF7 cells were exposed to CP-DN-CEBPB, CP-DN-CEBPD, or a CP-DN-CEBPD in which heptad repeat leucine residues were mutated to glycine residues for 6 days at doses of 0 μM to 50 μM. Stock solutions of the peptides were prepared in buffer without added bovine serum albumin (BSA).

HCT116 cells = experiment: Combination with chloroquine, cell number, HCT116; conditions: 5 μM or 10 μM chloroquine and 3 μM or 10 μM peptide, 6 days
Description: Replicate cultures of T98G, MDA-MB 231, and HCT116 cells were treated with 5 μM or 10 μM chloroquine and 3 μM or 10 μM CP-dn-CEBPB and CP-dn-CEBPD peptides, maintained for 6 days, and then assessed for cell number. The bar graphs of FIGS. 29A (T98G, CP-dn-CEBPB), 29C (T98G, CP-dn-CEBPBD, 29E (MDA-MB-231, CP-dn-CEBPBD), 29G (MDA-MB-231, CP-dn-CEBPD), 29I (HCT116, CP-dn-CEBPBB), and 26K (HCT116, CP-dn-CEBPBD) show relative cell numbers for each condition as compared to untreated controls. The line graphs of FIGS. 26B (T98G, CP-dn-CEBPB), 26D (T98G, CP-dn-CEBPBD), 26F (MDA-MB-231, CP-dn-CEBPB), 26H (MDA-MB-231, CP-dn-CEBPD), 26J (HCT116, CP-dn-CEBPB), and 26L (HCT116 CP-dn-CEBPBD) show the response as normalized in each case so that 100 represents the relative number of surviving cells that received the indicated level of chloroquine, but no peptide treatment. The results ranged from near-additive (HCT116 cells, CI=0.92±0.08 for CP-dn-CEBPB and 0.87±0.07 for CP-dn-CEBPD) to apparent synergy (T98G, CI=0.56±0.06 for CP-dn-CEBPB and 0.75±0.03 for CP-dn-CEBPD; MDA-MB-261, CI=0.59±0.11 for CP-dn-CEBPB and 0.47±0.05 for CP-dn-CEBPD).

MDA-MB-231 cells = experiment: Combination with paclitaxel, cell number, MDA-MB-231; conditions: 1 nM or 5 nM paclitaxel and 3, 10 or 20 μM peptide, 6 days
Description: as §1

[2] = system: MDA-MB 231, HCT116, and A375 cells; experiment: Peptide treatment after doxorubicin pre-treatment, cell number; conditions: for sensitivity of cells to peptide with or without doxorubicin pre-treatment: 100 nM doxorubicin 24 hours, then 1, 3, 10 or 20 μM peptide, 6 days; for effect on reversibly non-growing or slow-growing cancer cells: after pre-treatment with 100 nM doxorubicin for 24 hours
Description: Replicate cultures of MDA-MB 231, HCT116, and A375 cells were pretreated with 100 nM doxorubicin for 24 hours, and then treated with 1 μM, 3 μM, 10 μM, or 20 μM CP-dn-CEBPB and CP-dn-CEBPD peptides, maintained for 6 days, and then assessed for cell number. The bar graphs of FIGS. 31A (MDA-MB 231, CP-dn-CEBPB), 31C (MDA-MB 231, CP-dn-CEBPBD, 31E (HCT116, CP-dn-CEBPBD), 31G (HCT116, CP-dn-CEBPD), 31I (A375, CP-dn-CEBPBB), and 31K (A375, CP-dn-CEBPBD) show relative cell numbers for each condition as compared to untreated controls. The line graphs of FIGS. 31B (MDA-MB 231, CP-dn-CEBPB), 31D (MDA-MB 231, CP-dn-CEBPBD), 31F (HCT116, CP-dn-CEBPB), 31H (HCT116, CP-dn-CEBPD), 31J (A375, CP-dn-CEBPB), and 31L (A375, CP-dn-CEBPBD) show the response as normalized in each case so that 100 represents the relative number of surviving cells that received the indicated level of doxorubicin, but no peptide treatment.

[3] = system: MDA-MB-231 breast cancer cells; experiment: Cell number after peptide treatment, MDA-MB-231; conditions: 6 days, 0 μM to 50 μM; stock without BSA
Description: as §2, §3, §4

RQIKIWFQNRRMKWKKLETQHKVLELTAENERLQKKVEQLSRELSTLRNLFKQL [CP-DN-CEBPB]
combination index (CI) with paclitaxel (T98G cells): 0.84±0.06
growth and survival / numbers of HCT116 cells [1]: decrease in growth and survival
CI with chloroquine (HCT116 cells): 0.92±0.08
combination index (CI) with paclitaxel (MDA-MB-231 cells): 0.74±0.03
sensitivity of cells to peptide with or without doxorubicin pre-treatment [2]: retain similar sensitivity
effect on reversibly non-growing or slow-growing cancer cells [2]: effective to treat reversibly non-growing or slow-growing cancer cells
growth and survival / numbers of MDA-MB-231 cells [3]: decrease in growth and survival

RQIKIWFQNRRMKWKKLVELSAENEKLHQRVEQLTRDLAGLRQFFK [CP-DN-CEBPD]
combination index (CI) with paclitaxel (T98G cells): 0.75±0.07
growth and survival / numbers of HCT116 cells [1]: decrease in growth and survival
CI with chloroquine (HCT116 cells): 0.87±0.07
combination index (CI) with paclitaxel (MDA-MB-231 cells): 0.74±0.05
sensitivity of cells to peptide with or without doxorubicin pre-treatment [2]: retain similar sensitivity
effect on reversibly non-growing or slow-growing cancer cells [2]: effective to treat reversibly non-growing or slow-growing cancer cells
growth and survival / numbers of MDA-MB-231 cells [3]: decrease in growth and survival
